Data as given in patent publication US20190008795A1, “COMPOSITIONS FOR TOPICAL APPLICATION OF COMPOUNDS” (Illustris Pharmaceuticals, Inc., priority 2016, published 2019).

Assays:
[1] = Gabapentin delivery into porcine skin grafts, UPLC-mass spectrometer; type: in vitro ADME; conditions: 1% gabapentin in saline, 12-20 hours
Description: Delivery of gabapentin with hyaluronic acid into skin in vitro was measured using porcine skin grafts, and compared to delivery of gabapentin from a composition of gabapentin in saline (with no decoy molecule). Groups consisted of A) 1% gabapentin in saline (n=8 replicates), B) 1% gabapentin plus 1% sodium hyaluronate decoy of 3,000 Da in saline (n=8 replicates) or C) saline alone (n=8 replicates) in donor cells.
Briefly, tissues were incubated overnight in 0.5 mL of 50% acetonitrile in deionized water at 55° C. with agitation. Calibration standards and tissue extraction solvent samples were diluted 10× in deionized water before analysis. Diluted standards and samples were analyzed at 1 μL injection volumes. Concentrations were reported as μg/g of gabapentin in tissue.

[2] = 1 wt. % minocycline, 1% hyaluronic acid decoy or none, p=0.0004
Description: Delivery of minocycline into porcine skin in vitro was measured and compared to delivery of minocycline from a composition of minocycline in saline (i.e, with no decoy molecule). Compositions were prepared containing of 1 wt. % minocycline and 1% of decoy molecule of hyaluronic acid with three molecular weights: 10,000 Da mean, 20,000 Da mean, and 30,000 Da mean. A control formulation containing 1 wt % minocycline in saline was also prepared

[3] = Penetration of the decoy molecule into skin upon topical application (summary); type: in vitro ADME; parameters: key: 0: on a scale using +symbols to reflect extent of the effect; −: on a scale using +symbols to reflect extent of the effect; +/−: on a scale using +symbols to reflect extent of the effect; on a scale using +symbols to reflect extent of the effect; ++: on a scale using +symbols to reflect extent of the effect; +++: on a scale using +symbols to reflect extent of the effect; ++++: on a scale using +symbols to reflect extent of the effect; +++++: on a scale using +symbols to reflect extent of the effect
Excerpt: (§1) It will be appreciated that Examples 1-6, 11, 12 illustrate hyaluronic acid as a decoy molecule exemplary of the decoy molecules contemplated herein. As described above, decoy molecules of collagen and elastin are contemplated, where the molecular weight of the decoy molecule can be selected to tailor the delivery of the agent of interest across the skin. The table below summarizes the effect of the decoy molecule (using the hyaluronic acid as exemplary) on the transdermal delivery of a small molecule compound (e.g, one with a molecular weight of less than about 850 Da), on the transdermal delivery of a macromolecule compound (e.g, a peptide or a protein), on the extent of penetration of the decoy molecule into skin upon topical application, and on the enhancement of water content in skin by the decoy molecule, on a scale using +symbols to reflect extent of the effect.

[4] = Transdermal delivery of a macromolecule compound (summary); type: in vitro ADME; parameters: key: 0: on a scale using +symbols to reflect extent of the effect; −: on a scale using +symbols to reflect extent of the effect; +/−: on a scale using +symbols to reflect extent of the effect; on a scale using +symbols to reflect extent of the effect; ++: on a scale using +symbols to reflect extent of the effect; +++: on a scale using +symbols to reflect extent of the effect; ++++: on a scale using +symbols to reflect extent of the effect; +++++: on a scale using +symbols to reflect extent of the effect; conditions: peptide or protein, hyaluronic acid decoy
Excerpt: as §1

[5] = Transdermal delivery of a small molecule compound (summary); type: in vitro ADME; parameters: key: 0: on a scale using +symbols to reflect extent of the effect; −: on a scale using +symbols to reflect extent of the effect; +/−: on a scale using +symbols to reflect extent of the effect; on a scale using +symbols to reflect extent of the effect; ++: on a scale using +symbols to reflect extent of the effect; +++: on a scale using +symbols to reflect extent of the effect; ++++: on a scale using +symbols to reflect extent of the effect; +++++: on a scale using +symbols to reflect extent of the effect; conditions: compound of less than about 850 Da, hyaluronic acid decoy
Excerpt: as §1

[6] = listed as disaccharide (400 Da)

## NCC1(CC(=O)O)CCCCC1 [gabapentin alone, gabapentin]
[1]
  gabapentin tissue levels: 0.09 μg of gabapentin per gram of tissue

## CN(C)c1ccc(O)c2c1C[C@H]1C[C@H]3[C@H](N(C)C)C(O)=C(C(N)=O)C(=O)[C@@]3(O)C(O)=C1C2=O [minocycline]
[2]
  penetration of minocycline into porcine skin: low native penetration

## hyaluronic acid [Hyaluronic Acid 10,000 Da]
[3]; listed as 10,000 Da
  Hyaluronic Acid Skin Penetration: ++
[4]; listed as 10,000 Da
  Delivery of a Macromolecule Compound: ++
[5]; listed as 10,000 Da
  Delivery of a Small Molecule Compound: +++

## hyaluronic acid [Hyaluronic Acid 20,000 Da]
[3]; listed as 20,000 Da
  Hyaluronic Acid Skin Penetration: ++
[4]; listed as 20,000 Da
  Delivery of a Macromolecule Compound: +++++
[5]; listed as 20,000 Da
  Delivery of a Small Molecule Compound: ++++

## hyaluronic acid [Hyaluronic Acid 100,000 Da degraded]
[3]; listed as 100,000 Da degraded
  Hyaluronic Acid Skin Penetration: +++
[4]; listed as 100,000 Da degraded
  Delivery of a Macromolecule Compound: +++
[5]; listed as 100,000 Da degraded
  Delivery of a Small Molecule Compound: ++++

## hyaluronic acid [Hyaluronic Acid 100,000 Da]
[3]; listed as 100,000 Da
  Hyaluronic Acid Skin Penetration: +/−
[4]; listed as 100,000 Da
  Delivery of a Macromolecule Compound: 0
[5]; listed as 100,000 Da
  Delivery of a Small Molecule Compound: 0

## hyaluronic acid [Hyaluronic Acid 3000 Da]
[3]; listed as 3000 Da
  Hyaluronic Acid Skin Penetration: ++++
[4]; listed as 3000 Da
  Delivery of a Macromolecule Compound: +
[5]; listed as 3000 Da
  Delivery of a Small Molecule Compound: +++

## hyaluronic acid [Hyaluronic Acid 5000 Da]
[3]; listed as 5000 Da
  Hyaluronic Acid Skin Penetration: +++
[4]; listed as 5000 Da
  Delivery of a Macromolecule Compound: +
[5]; listed as 5000 Da
  Delivery of a Small Molecule Compound: +

## hyaluronic acid [Hyaluronic Acid degraded 5000 Da]
[3]; listed as degraded 5000 Da
  Hyaluronic Acid Skin Penetration: ++++
[4]; listed as degraded 5000 Da
  Delivery of a Macromolecule Compound: −
[5]; listed as degraded 5000 Da
  Delivery of a Small Molecule Compound: −

## hyaluronic acid [Hyaluronic Acid disaccharide (400 Da)]
[3]; [6]
  Hyaluronic Acid Skin Penetration: +++++
[4]; [6]
  Delivery of a Macromolecule Compound: 0
[5]; [6]
  Delivery of a Small Molecule Compound: 0
